Experiments:
Assay in all cases: relative viability (nuclei count vs DMSO), 5 days (fraction); higher = more cells survive
[1] = compound: C1COCCN1C2=NC(=NC3=C2OC4=C3C=CC=N4)C5=CC(=CC=C5)NC(=O)C6=CN=C(C=C6)N + CC(=O)c1c(C)c2cnc(Nc3ccc(N4CCNCC4)cn3)nc2n(C2CCCC2)c1=O [Palbociclib] (partner 0.5 µM)
Method in brief: (§1)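 Dosing by pin tool came one day after lung cancer cell lines were seeded in 1536-well plates, using either one drug or a fixed anchor-drug dose plus five library-drug doses (not always all listed) in √10 steps. After 5 days, nuclei were counted on 4× images. Relative viability is treated-well nuclei count divided by vehicle-well nuclei count, and values are medians of duplicate plates.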

SGI-1776 + Phenformin = compound: CN1CCC(CNc2ccc3ncc(-c4cccc(OC(F)(F)F)c4)n3n2)CC1 [SGI-1776] + N=C(N)NC(=N)NCCc1ccccc1 [Phenformin] (partner 250 µM)
Method in brief: as §1

SGI-1776 + Olaparib = compound: CN1CCC(CNc2ccc3ncc(-c4cccc(OC(F)(F)F)c4)n3n2)CC1 [SGI-1776] + O=C(c1cc(Cc2n[nH]c(=O)c3ccccc23)ccc1F)N1CCN(C(=O)C2CC2)CC1 [Olaparib] (partner 8 µM)
Method in brief: as §1

Entinostat + Phenformin = compound: Nc1ccccc1NC(=O)c1ccc(CNC(=O)OCc2cccnc2)cc1 [Entinostat] + N=C(N)NC(=N)NCCc1ccccc1 [Phenformin] (partner 250 µM)
Method in brief: as §1

H3255 was tested, and the relative viability ([1]; first compound 0.02 µM) was 0.308, the relative viability ([1]; first compound 0.06325 µM) was 0.308 and the relative viability ([1]; first compound 0.2 µM) was 0.306. For the same cell line, the relative viability ([1]; first compound 0.6325 µM) was 0.308, the relative viability ([1]; first compound 2 µM) was 0.305 and the relative viability (SGI-1776 + Phenformin; first compound 0.08 µM) was 0.372. It also gave a relative viability (SGI-1776 + Phenformin; first compound 0.8 µM) of 0.391, a relative viability (SGI-1776 + Phenformin; first compound 2.53 µM) of 0.331 and a relative viability (SGI-1776 + Phenformin; first compound 8 µM) of 0.325. The relative viability (SGI-1776 + Olaparib; first compound 0.08 µM) was 0.563, the relative viability (SGI-1776 + Olaparib; first compound 0.8 µM) was 0.595 and the relative viability (SGI-1776 + Olaparib; first compound 2.53 µM) was 0.646. It also gave a relative viability (SGI-1776 + Olaparib; first compound 8 µM) of 0.529, a relative viability (Entinostat + Phenformin; first compound 0.02 µM) of 0.378 and a relative viability (Entinostat + Phenformin; first compound 0.06325 µM) of 0.376. For the same cell line, the relative viability (Entinostat + Phenformin; first compound 0.2 µM) was 0.272, the relative viability (Entinostat + Phenformin; first compound 0.6325 µM) was 0.316 and the relative viability (Entinostat + Phenformin; first compound 2 µM) was 0.267.
With NCI-H23 the relative viability ([1]; first compound 0.02 µM) was 0.622, the relative viability ([1]; first compound 0.06325 µM) was 0.555 and the relative viability ([1]; first compound 0.2 µM) was 0.457. The relative viability ([1]; first compound 0.6325 µM) was 0.524, the relative viability ([1]; first compound 2 µM) was 0.225 and the relative viability (SGI-1776 + Phenformin; first compound 0.08 µM) was 0.77. For the same cell line, the relative viability (SGI-1776 + Phenformin; first compound 0.8 µM) was 0.702, the relative viability (SGI-1776 + Phenformin; first compound 2.53 µM) was 0.752 and the relative viability (SGI-1776 + Phenformin; first compound 8 µM) was 0.72. For the same cell line, the relative viability (SGI-1776 + Olaparib; first compound 0.08 µM) was 0.32, the relative viability (SGI-1776 + Olaparib; first compound 0.8 µM) was 0.331 and the relative viability (SGI-1776 + Olaparib; first compound 2.53 µM) was 0.299. For the same cell line, the relative viability (SGI-1776 + Olaparib; first compound 8 µM) was 0.332, the relative viability (Entinostat + Phenformin; first compound 0.02 µM) was 0.71 and the relative viability (Entinostat + Phenformin; first compound 0.06325 µM) was 0.667. It also gave a relative viability (Entinostat + Phenformin; first compound 0.2 µM) of 0.796, a relative viability (Entinostat + Phenformin; first compound 0.6325 µM) of 0.762 and a relative viability (Entinostat + Phenformin; first compound 2 µM) of 0.501.
Work on CAL-12T yielded a relative viability ([1]; first compound 0.02 µM) of 0.351, a relative viability ([1]; first compound 0.06325 µM) of 0.44 and a relative viability ([1]; first compound 0.2 µM) of 0.285. For the same cell line, the relative viability ([1]; first compound 0.6325 µM) was 0.398, the relative viability ([1]; first compound 2 µM) was 0.326 and the relative viability (SGI-1776 + Phenformin; first compound 0.08 µM) was 0.558. The relative viability (SGI-1776 + Phenformin; first compound 0.8 µM) was 0.647, the relative viability (SGI-1776 + Phenformin; first compound 2.53 µM) was 0.531 and the relative viability (SGI-1776 + Phenformin; first compound 8 µM) was 0.558. For the same cell line, the relative viability (SGI-1776 + Olaparib; first compound 0.08 µM) was 0.713, the relative viability (SGI-1776 + Olaparib; first compound 0.8 µM) was 0.738 and the relative viability (SGI-1776 + Olaparib; first compound 2.53 µM) was 0.833. It also gave a relative viability (SGI-1776 + Olaparib; first compound 8 µM) of 0.696, a relative viability (Entinostat + Phenformin; first compound 0.02 µM) of 0.649 and a relative viability (Entinostat + Phenformin; first compound 0.06325 µM) of 0.581. It also gave a relative viability (Entinostat + Phenformin; first compound 0.2 µM) of 0.593, a relative viability (Entinostat + Phenformin; first compound 0.6325 µM) of 0.523 and a relative viability (Entinostat + Phenformin; first compound 2 µM) of 0.325.
Work on A-427 yielded a relative viability ([1]; first compound 0.02 µM) of 0.517, a relative viability ([1]; first compound 0.06325 µM) of 0.524 and a relative viability ([1]; first compound 0.2 µM) of 0.496. For the same cell line, the relative viability ([1]; first compound 0.6325 µM) was 0.512, the relative viability ([1]; first compound 2 µM) was 0.454 and the relative viability (SGI-1776 + Phenformin; first compound 0.08 µM) was 0.258. It also gave a relative viability (SGI-1776 + Phenformin; first compound 0.8 µM) of 0.277, a relative viability (SGI-1776 + Phenformin; first compound 2.53 µM) of 0.275 and a relative viability (SGI-1776 + Phenformin; first compound 8 µM) of 0.209. It also gave a relative viability (SGI-1776 + Olaparib; first compound 0.08 µM) of 0.724, a relative viability (SGI-1776 + Olaparib; first compound 0.8 µM) of 0.723 and a relative viability (SGI-1776 + Olaparib; first compound 2.53 µM) of 0.739. For the same cell line, the relative viability (SGI-1776 + Olaparib; first compound 8 µM) was 0.569, the relative viability (Entinostat + Phenformin; first compound 0.02 µM) was 0.365 and the relative viability (Entinostat + Phenformin; first compound 0.06325 µM) was 0.327. For the same cell line, the relative viability (Entinostat + Phenformin; first compound 0.2 µM) was 0.368, the relative viability (Entinostat + Phenformin; first compound 0.6325 µM) was 0.318 and the relative viability (Entinostat + Phenformin; first compound 2 µM) was 0.266.
HARA was tested, and the relative viability ([1]; first compound 0.02 µM) was 0.207, the relative viability ([1]; first compound 0.06325 µM) was 0.242 and the relative viability ([1]; first compound 0.2 µM) was 0.246. For the same cell line, the relative viability ([1]; first compound 2 µM) was 0.263, the relative viability (SGI-1776 + Phenformin; first compound 0.08 µM) was 0.532 and the relative viability (SGI-1776 + Phenformin; first compound 0.8 µM) was 0.337. The relative viability (SGI-1776 + Phenformin; first compound 2.53 µM) was 0.354, the relative viability (SGI-1776 + Phenformin; first compound 8 µM) was 0.318 and the relative viability (SGI-1776 + Olaparib; first compound 0.08 µM) was 1.09. For the same cell line, the relative viability (SGI-1776 + Olaparib; first compound 0.8 µM) was 0.986, the relative viability (SGI-1776 + Olaparib; first compound 2.53 µM) was 0.667 and the relative viability (SGI-1776 + Olaparib; first compound 8 µM) was 0.57. For the same cell line, the relative viability (Entinostat + Phenformin; first compound 0.02 µM) was 0.459, the relative viability (Entinostat + Phenformin; first compound 0.06325 µM) was 0.441 and the relative viability (Entinostat + Phenformin; first compound 0.2 µM) was 0.494. The relative viability (Entinostat + Phenformin; first compound 0.6325 µM) was 0.364 and the relative viability (Entinostat + Phenformin; first compound 2 µM) was 0.277.
Cell Line NCI-H1793 has a relative viability ([1]; first compound 0.02 µM) of 0.306, a relative viability ([1]; first compound 0.06325 µM) of 0.335 and a relative viability ([1]; first compound 0.2 µM) of 0.317. It also gave a relative viability ([1]; first compound 0.6325 µM) of 0.218, a relative viability ([1]; first compound 2 µM) of 0.255 and a relative viability (SGI-1776 + Phenformin; first compound 0.08 µM) of 0.389. For the same cell line, the relative viability (SGI-1776 + Phenformin; first compound 0.8 µM) was 0.219, the relative viability (SGI-1776 + Phenformin; first compound 2.53 µM) was 0.262 and the relative viability (SGI-1776 + Phenformin; first compound 8 µM) was 0.249. The relative viability (SGI-1776 + Olaparib; first compound 0.08 µM) was 0.87, the relative viability (SGI-1776 + Olaparib; first compound 0.8 µM) was 0.99 and the relative viability (SGI-1776 + Olaparib; first compound 2.53 µM) was 0.864. The relative viability (SGI-1776 + Olaparib; first compound 8 µM) was 0.8, the relative viability (Entinostat + Phenformin; first compound 0.02 µM) was 0.439 and the relative viability (Entinostat + Phenformin; first compound 0.06325 µM) was 0.4. For the same cell line, the relative viability (Entinostat + Phenformin; first compound 0.2 µM) was 0.368, the relative viability (Entinostat + Phenformin; first compound 0.6325 µM) was 0.302 and the relative viability (Entinostat + Phenformin; first compound 2 µM) was 0.316.
Cell Line NCI-H1623 has a relative viability (SGI-1776 + Phenformin; first compound 0.08 µM) of 0.611, a relative viability (SGI-1776 + Phenformin; first compound 0.8 µM) of 0.571 and a relative viability (SGI-1776 + Phenformin; first compound 2.53 µM) of 0.556. It also gave a relative viability (SGI-1776 + Phenformin; first compound 8 µM) of 0.626, a relative viability (Entinostat + Phenformin; first compound 0.02 µM) of 0.663 and a relative viability (Entinostat + Phenformin; first compound 0.06325 µM) of 0.623. For the same cell line, the relative viability (Entinostat + Phenformin; first compound 0.2 µM) was 0.556, the relative viability (Entinostat + Phenformin; first compound 0.6325 µM) was 0.489 and the relative viability (Entinostat + Phenformin; first compound 2 µM) was 0.422.
NCI-H2023 showed a relative viability ([1]; first compound 0.02 µM) of 0.378, a relative viability ([1]; first compound 0.06325 µM) of 0.384 and a relative viability ([1]; first compound 0.2 µM) of 0.316. For the same cell line, the relative viability ([1]; first compound 0.6325 µM) was 0.256, the relative viability ([1]; first compound 2 µM) was 0.172 and the relative viability (SGI-1776 + Phenformin; first compound 0.08 µM) was 0.379. For the same cell line, the relative viability (SGI-1776 + Phenformin; first compound 0.8 µM) was 0.377, the relative viability (SGI-1776 + Phenformin; first compound 2.53 µM) was 0.332 and the relative viability (SGI-1776 + Phenformin; first compound 8 µM) was 0.282. For the same cell line, the relative viability (SGI-1776 + Olaparib; first compound 0.08 µM) was 0.499, the relative viability (SGI-1776 + Olaparib; first compound 0.8 µM) was 0.516 and the relative viability (SGI-1776 + Olaparib; first compound 2.53 µM) was 0.51. For the same cell line, the relative viability (SGI-1776 + Olaparib; first compound 8 µM) was 0.347, the relative viability (Entinostat + Phenformin; first compound 0.02 µM) was 0.355 and the relative viability (Entinostat + Phenformin; first compound 0.06325 µM) was 0.407. For the same cell line, the relative viability (Entinostat + Phenformin; first compound 0.2 µM) was 0.327, the relative viability (Entinostat + Phenformin; first compound 0.6325 µM) was 0.162 and the relative viability (Entinostat + Phenformin; first compound 2 µM) was 0.0942.
ABC-1 showed a relative viability ([1]; first compound 0.02 µM) of 0.562, a relative viability ([1]; first compound 0.06325 µM) of 0.658 and a relative viability ([1]; first compound 0.2 µM) of 0.55. It also gave a relative viability ([1]; first compound 0.6325 µM) of 0.7, a relative viability ([1]; first compound 2 µM) of 0.471 and a relative viability (SGI-1776 + Phenformin; first compound 0.08 µM) of 0.23. It also gave a relative viability (SGI-1776 + Phenformin; first compound 0.8 µM) of 0.24, a relative viability (SGI-1776 + Phenformin; first compound 2.53 µM) of 0.219 and a relative viability (SGI-1776 + Phenformin; first compound 8 µM) of 0.236. It also gave a relative viability (SGI-1776 + Olaparib; first compound 0.08 µM) of 0.78, a relative viability (SGI-1776 + Olaparib; first compound 0.8 µM) of 0.874 and a relative viability (SGI-1776 + Olaparib; first compound 2.53 µM) of 0.5. It also gave a relative viability (SGI-1776 + Olaparib; first compound 8 µM) of 0.842, a relative viability (Entinostat + Phenformin; first compound 0.02 µM) of 0.215 and a relative viability (Entinostat + Phenformin; first compound 0.06325 µM) of 0.267. It also gave a relative viability (Entinostat + Phenformin; first compound 0.2 µM) of 0.263, a relative viability (Entinostat + Phenformin; first compound 0.6325 µM) of 0.268 and a relative viability (Entinostat + Phenformin; first compound 2 µM) of 0.215.
